ChEMBL document CHEMBL3286375, “Total synthesis and antiplasmodial activity of pohlianin C and analogues” (Bioorg Med Chem Lett, 2014)
Non-standard residues stand in square brackets, D forms with d. Residues, ends and D or L forms follow the SMILES beside them. 3Amb = NCc1cccc(C(=O)O)c1; 4Abz = Nc1ccc(C(=O)O)cc1; Ava = NCCCCC(=O)O

How the values were obtained:
[1] = system: Plasmodium falciparum; assay: Antiplasmodial activity against asexual blood stage chloroquine-sensitive Plasmodium falciparum 3D7 assessed as parasite growth inhibition at 40 uM by image-based assay relative to control; type: functional
[2] = system: Plasmodium falciparum; assay: Antiplasmodial activity against Plasmodium falciparum assessed as parasite growth inhibition; type: functional, organism-based
[3] = system: Plasmodium falciparum; assay: Antiplasmodial activity against asexual blood stage chloroquine-sensitive Plasmodium falciparum 3D7 assessed as parasite growth inhibition by image-based assay; type: functional, organism-based
[4] = system: Plasmodium falciparum; assay: Antiplasmodial activity against asexual blood stage chloroquine-sensitive Plasmodium falciparum 3D7 assessed as parasite growth inhibition at 2 uM by image-based assay relative to control; type: functional

SMILES	inhibition at 40 µM [1]	IC50 [2]	IC50 [3]	inhibition at 2 µM [4]
CC[C@H](C)[C@@H]1NC(=O)[C@H]([C@@H](C)O)NC(=O)CNC(=O)CNC(=O)[C@H](Cc2ccccc2)NC(=O)CNC(=O)[C@H](Cc2ccccc2)NC(=O)[C@H]([C@@H](C)CC)NC1=O (cyclo(FGFGGTII))	78%	16 µM	25 µM	
CC(C)C[C@@H]1NC(=O)[C@H](CC(C)C)NC(=O)[C@H](C(C)C)NC(=O)CNC(=O)[C@H](CC(C)C)NC(=O)[C@@H]2CCCN2C(=O)[C@H](Cc2ccc(O)cc2)NC1=O (cyclo(GVLLYPL))		57 µM		
CC(C)C[C@@H]1NC(=O)CNC(=O)[C@H](CC(C)C)NC(=O)[C@@H]2CCCN2C(=O)[C@H](Cc2ccc(O)cc2)NC(=O)[C@H](CC(C)C)NC(=O)[C@H](CC(C)C)NC1=O (cyclo(GLLLYPL))		25 µM		
C[C@@H]1CC[C@H]2[C@@H](C)C(=O)O[C@@H]3O[C@@]4(C)CC[C@@H]1[C@]32OO4 [ARTEMISININ]			0.013 µM	100%
CC[C@H](C)[C@@H]1NC(=O)[C@H]([C@@H](C)O)NC(=O)c2cccc(c2)CNC(=O)[C@H](Cc2ccccc2)NC(=O)CNC(=O)[C@H](Cc2ccccc2)NC(=O)[C@H]([C@@H](C)CC)NC1=O (cyclo([3Amb]TIIFGF))	86%		4 µM	
CC[C@H](C)[C@@H]1NC(=O)[C@H]([C@@H](C)O)NC(=O)c2ccc(cc2)NC(=O)[C@H](Cc2ccccc2)NC(=O)CNC(=O)[C@H](Cc2ccccc2)NC(=O)[C@H]([C@@H](C)CC)NC1=O (cyclo([4Abz]TIIFGF))	12%			
CC[C@H](C)[C@@H]1NC(=O)[C@H]([C@@H](C)O)NC(=O)CCCCNC(=O)[C@H](Cc2ccccc2)NC(=O)CNC(=O)[C@H](Cc2ccccc2)NC(=O)[C@H]([C@@H](C)CC)NC1=O (cyclo([Ava]TIIFGF))	87%		23 µM	
